ChEMBL document CHEMBL1141305, “Daphnipaxianines A-D, alkaloids from Daphniphyllum paxianum” (J Nat Prod, 2007)
The source made the active and inactive calls.

Tests used:
Format in all cases: functional, cell-based
HCT-116 [1] = test: Cytotoxicity against human Bax deficient HCT116 cells
HCT-116 [2] = test: Cytotoxicity against human HCT116 cells
MEF = test: Cytotoxicity against mouse Bax and Bak deficient MEF cells

Measured: Activity

COC(=O)[C@@H]1C[C@]23CN4CC(CCC5(CCC1C52)C4)[C@@]31CC[C@](OC)(C(C)C)OC1 (some centres not stated)
inactive: all assays above

C[C@@H]1CN2C[C@H]3CC[C@]4(O)CC(=O)C5=C4[C@@]4(CC5)C(=O)[C@@H]1C[C@@H]2[C@@]34C
inactive: all assays above

C[C@@H]1CN2C[C@H]3CC[C@@]4(O)CC(=O)C5=C4[C@@]4(CC5)C(=O)[C@@H]1C[C@@H]2[C@@]34C
inactive: all assays above

C[C@@H]1CN2C[C@H]3CCC4=C5[C@](O)(CC4)CC[C@@]54C(=O)[C@@H]1C[C@@H]2[C@@]34C
inactive: all assays above
